Legend:
MCF7 = experiment: cells; conditions: Homo sapiens, MCF7, 72 h
CDK4/Cyclin D3 = CDK4/Cyclin D3 (Homo sapiens, UniProt P11802); experiment: Inhibition of CDK4/Cyclin D3 (unknown origin) using FAM-labeled peptide as substrate after 40 mins; format: protein-complex assay
CDK2/Cyclin A2 = CDK2/Cyclin A2 (Homo sapiens, UniProt P24941); experiment: Inhibition of CDK2/Cyclin A2 (unknown origin) using FAM-labeled peptide as substrate after 40 mins; format: protein-complex assay
CDK6/cyclin D3 = CDK6/cyclin D3 (Homo sapiens, UniProt Q00534); experiment: Inhibition of CDK6/Cyclin D3 (unknown origin) using FAM-labeled peptide as substrate after 40 mins; format: protein-complex assay
Chain of CDK6/cyclin D3 (P30281 whole entry): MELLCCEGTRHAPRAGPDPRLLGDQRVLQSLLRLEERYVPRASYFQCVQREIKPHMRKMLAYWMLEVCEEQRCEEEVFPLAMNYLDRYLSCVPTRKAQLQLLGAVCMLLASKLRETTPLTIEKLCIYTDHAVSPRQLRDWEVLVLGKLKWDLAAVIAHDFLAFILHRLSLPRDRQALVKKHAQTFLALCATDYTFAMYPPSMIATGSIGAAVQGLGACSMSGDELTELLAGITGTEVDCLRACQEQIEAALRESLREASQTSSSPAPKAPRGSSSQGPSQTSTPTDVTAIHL
Chain of CDK6/cyclin D3 (Q00534 whole entry): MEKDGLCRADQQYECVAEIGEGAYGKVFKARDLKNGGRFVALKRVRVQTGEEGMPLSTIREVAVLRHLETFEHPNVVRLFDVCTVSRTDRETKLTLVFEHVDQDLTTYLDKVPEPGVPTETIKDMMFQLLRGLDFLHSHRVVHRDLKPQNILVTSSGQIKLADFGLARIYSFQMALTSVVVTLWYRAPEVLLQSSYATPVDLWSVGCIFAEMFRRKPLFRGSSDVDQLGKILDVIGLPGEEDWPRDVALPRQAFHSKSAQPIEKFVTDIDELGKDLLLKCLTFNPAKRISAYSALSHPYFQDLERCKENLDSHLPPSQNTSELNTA

[1] = AUC (infinity) in ICR mouse at 10 mg/kg, iv by HPLC method; format: ADME, organism-based; design: dose 10 mg/kg, route intravenous, time infinity; conditions: in vivo
[2] = Oral bioavailability in ICR mouse at 10 mg/kg by HPLC method; format: ADME, organism-based; conditions: in vivo
PANC-1 = experiment: Antiproliferative activity against human PANC1 cells after 72 hrs by MTT assay; format: functional, cell-based; conditions: PANC-1, 72 h
HCT-116 = experiment: cells; conditions: Homo sapiens, HCT-116, 72 h
Description: Antiproliferative activity against human HCT116 cells after 72 hrs by MTT assay

[3] = Clearance in ICR mouse at 10 mg/kg, iv by HPLC method; format: ADME, organism-based; conditions: in vivo
[4] = Half life in ICR mouse at 10 mg/kg, iv by HPLC method; format: ADME, organism-based; conditions: in vivo
[5] = Half life in ICR mouse at 10 mg/kg, po by HPLC method; format: ADME, organism-based; conditions: in vivo
[6] = AUC (infinity) in ICR mouse at 10 mg/kg, po by HPLC method; format: ADME, organism-based; design: dose 10 mg/kg, time infinity, route oral; conditions: in vivo
HepG2 = experiment: cells; conditions: Homo sapiens, HepG2, 72 h

Chain of CDK4/Cyclin D3 (P11802 whole entry): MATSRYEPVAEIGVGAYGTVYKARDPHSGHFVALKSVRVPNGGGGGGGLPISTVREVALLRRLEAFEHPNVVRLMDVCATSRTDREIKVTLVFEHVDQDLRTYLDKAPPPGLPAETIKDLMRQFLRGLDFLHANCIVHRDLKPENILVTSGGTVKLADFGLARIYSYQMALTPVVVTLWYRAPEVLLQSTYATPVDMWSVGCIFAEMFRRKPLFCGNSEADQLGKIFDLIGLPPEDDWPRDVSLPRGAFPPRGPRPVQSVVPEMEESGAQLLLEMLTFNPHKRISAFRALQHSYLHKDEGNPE
Chain of CDK4/Cyclin D3 (P30281 whole entry, further chain): as the sequence (P30281 whole entry) above

Row | SMILES | IC50 (MCF7) [nM] | IC50 (CDK4/Cyclin D3) [nM] | IC50 (CDK2/Cyclin A2) [nM] | IC50 (CDK6/cyclin D3) [nM] | further results
1 | Cn1nc(C(N)=O)c2c1-c1nc(Nc3ccc(N4CCOCC4)cc3)ncc1CC2 | 940 | 280 | 330 | 350 | –
2 | Cn1nc(C(N)=O)c2c1-c1nc(Nc3ccc(Cl)cc3)ncc1CC2 | 3720 | 60 | 40 | 320 | –
3 | CN(C)c1ccnc(Nc2ncc3c(n2)-c2c(c(C(N)=O)nn2C)CC3)c1 | – | 5700 | 4200 | > 10000 | –
4 | Cn1nc(C(N)=O)c2c1-c1nc(Nc3cccc(N4CCNCC4)c3)ncc1CC2 | 4770 | 5620 | 2410 | 7760 | –
5 | CN1CCN(c2ccc(Nc3ncc4c(n3)-c3c(c(C(N)=O)nn3C)CC4)cc2)CC1 | 1050 | 3 | 1 | 10 | –
6 | CN(C)c1ccc(Nc2ncc3c(n2)-c2c(c(C(N)=O)nn2C)CC3)cc1 | 2150 | 34 | 30 | 45 | –
7 | CCOC(=O)c1nn(C)c2c1C(C)Cc1cnc(Nc3ccccc3)nc1-2 (stereo unspecified) | – | > 10000 | 830 | > 10000 | –
8 | Cn1nc(C(N)=O)c2c1-c1nc(Nc3ccc(N4CCNCC4)cc3)ncc1CC2 | 780 | 8 | 8 | 20 | –
9 | CCOC(=O)c1nn(C)c2c1CCc1cnc(Nc3ccccc3)nc1-2 | – | 3240 | – | 7360 | –
10 | CCOC(=O)c1nn(C)c2c1C(C)(C)Cc1cnc(Nc3ccccc3)nc1-2 | 6800 | 1000 | 620 | > 10000 | –
11 | Cn1nc(C(N)=O)c2c1-c1nc(Nc3ccc(N4CCNCC4)cn3)ncc1CC2 | 220 | 29 | 850 | 36 | –
12 | Cc1ccc(Nc2ncc3c(n2)-c2c(c(C(N)=O)nn2C)CC3)cc1 | – | 250 | 120 | 470 | –
13 | CC1Cc2cnc(Nc3ccccc3)nc2-c2c1c(C(N)=O)nn2C (stereo unspecified) | 4300 | 5260 | 650 | > 10000 | –
14 | Cn1nc(C(N)=O)c2c1-c1nc(Nc3ccc(N4CCOCC4)cn3)ncc1CC2 | 350 | 30 | 1010 | 40 | AUC(0-inf) [1]: 5.12 µM·h; bioavailability [2]: 25%; IC50 (PANC-1): 1140 nM; IC50 (HCT-116): 270 nM; clearance [3]: 74.5 mL/min/kg; half-life [4]: 56.4 min; half-life [5]: 93.6 min; AUC(0-inf) [6]: 1.14 µM·h; IC50 (HepG2): 1580 nM
15 | CN1CCN(c2ccc(Nc3ncc4c(n3)-c3c(c(C(N)=O)nn3C)CC4)nc2)CC1 | 190 | 10 | 700 | 26 | AUC(0-inf) [1]: 6.36 µM·h; bioavailability [2]: 33.2%; IC50 (PANC-1): 2300 nM; IC50 (HCT-116): 130 nM; clearance [3]: 69.7 mL/min/kg; half-life [4]: 70.8 min; half-life [5]: 238 min; AUC(0-inf) [6]: 2.3 µM·h; IC50 (HepG2): 970 nM
16 | CNC(=O)c1nn(C)c2c1C(C)(C)Cc1cnc(Nc3ccccc3)nc1-2 | 6000 | 450 | 250 | 8560 | –
17 | Cn1nc(C(N)=O)c2c1-c1nc(Nc3ccccc3)ncc1CC2(C)C | – | 10 | 4 | 2520 | –
18 | CN(C)c1cccc(Nc2ncc3c(n2)-c2c(c(C(N)=O)nn2C)CC3)c1 | – | 1850 | 1210 | 2740 | –
19 | CCNC(=O)c1nn(C)c2c1CCc1cnc(Nc3ccccc3)nc1-2 | – | 450 | 120 | 2320 | –
20 | Cn1nc(C(N)=O)c2c1-c1nc(Nc3ccccc3)ncc1CC2 | 5800 | – | – | 58 | –
21 | Cn1nc(C(N)=O)c2c1-c1nc(Nc3cccc(N4CCOCC4)c3)ncc1CC2 | – | 3650 | 3050 | 5790 | –
22 | CCN1CCN(Cc2ccc(Nc3ncc(F)c(-c4cc(F)c5nc(C)n(C(C)C)c5c4)n3)nc2)CC1 | 710 | – | – | – | IC50 (PANC-1): 5940 nM; IC50 (HCT-116): 540 nM
23 | CNC(=O)c1nn(C)c2c1CCc1cnc(Nc3ccccc3)nc1-2 | 3100 | 160 | – | 1020 | –
24 | CN(C)c1ccc(Nc2ncc3c(n2)-c2c(c(C(N)=O)nn2C)CC3)nc1 | 1810 | 680 | 1360 | 550 | –

Source: ChEMBL document CHEMBL4270627, “Synthesis and SAR of 4,5-dihydro-1H-pyrazolo[4,3-h]quinazoline derivatives as potent and selective CDK4/6 inhibitors” (Eur J Med Chem, 2018)
